{
  "source": "patent US6841570B2",
  "about": "“Materials and methods for controlling wood-boring insects” (priority 2002, dated 2005)",
  "key": {"[1]": {"tested_on": "Reticultiermes flavipes", "test": "Toxicity tests of nepetalactone on treated filter paper in petri dishes", "type": "in vivo", "conditions": "filter paper treated with acetone solutions; strengths 5.35%, 0.535%, 0.0535%, 0.000004%", "method": "Materials: Reticultiermes flavipes, from the family Rhinotermitidae, the most common subterranean termites, were collected for toxicity tests, nepetalactone was obtained by commercial purchase (Kooky Kat Catnip Co., B.C.). For repellency assays, a donated amount of nepetalactone was provided from Iowa State University, courtesy of Dr. Joel Coates. Bioassays: Acetone was used as solvent for nepetalactone and control (permethrin). Absorbent (Fisherbrand) coarse, filter paper was treated with nepetalactone and controls and placed in standard, sterile polystyrene 100×15 mm petri dishes. Reticultierme flavipes (20 per replication) were placed in petri dishes and location monitored at 6 ten minute intervals. Toxicity tests: Toxicity tests of nepetalactone were conducted to determine non-lethal percentage for repellency assays. Permethrin (0.1%) solutions served as known control. Four strengths of nepetalactone were measured: 5.35%, 0.535%, 0.0535%, and 0.000004%. Based on the evident mortality, 0.0535% nepetalactone was selected as the repellency test solution."}, "[2]": {"tested_on": "Reticultiermes flavipes", "test": "Repellency tests, half-treated filter paper in petri dishes", "type": "in vivo", "conditions": "0.0535% nepetalactone on half of the filter paper; six ten minute intervals", "method": "Materials: Reticultiermes flavipes, from the family Rhinotermitidae, the most common subterranean termites, were collected for toxicity tests, nepetalactone was obtained by commercial purchase (Kooky Kat Catnip Co., B.C.). For repellency assays, a donated amount of nepetalactone was provided from Iowa State University, courtesy of Dr. Joel Coates. Bioassays: Acetone was used as solvent for nepetalactone and control (permethrin). Absorbent (Fisherbrand) coarse, filter paper was treated with nepetalactone and controls and placed in standard, sterile polystyrene 100×15 mm petri dishes. Reticultierme flavipes (20 per replication) were placed in petri dishes and location monitored at 6 ten minute intervals. Repellency tests: Eight trials each of 0.0535% nepetalactone, 0.1% permethrin, blank, and pure acetone solvent were ran to test repellency. Filter papers were cut in half with solvent on one half and treated side on the opposite half. […] Termites were measured on treated and untreated sides at six consecutive ten minute intervals. Percent repellency was calculated as follows: (# live termites−# live termites treated)/total #termites. Standard mean of the Error (SEM): SEM=(variance)^1/2[…]."}},
  "note": "Entries after “also recorded” stand apart in the source; their conditions may differ.",
  "data": [
    {"compound": "CC1=COC(=O)C2C(C)CCC12", "note": "(centres unmarked) [nepetalactone, 5,6,7,7a-tetrahydro-4,7-dimethyl cyclopenta[c]pyran-1-(4aH)-one]", "values": [
      {"measurement": "toxic effect (mortality) to termites", "setting": "[1]", "result": "lethal to termites; also recorded: toxic effects"},
      {"measurement": "repellant effect on termites", "setting": "[2]", "result": "dramatic repellant effect; also recorded: clear repellant"}
    ]}
  ]
}
